The text below walks through data of patent publication US20240307374A1, “FORMULATION OF FURIN INHIBITOR FOR INHALATION” (BP ASSET V, INC., priority 2021, published 2024).

A short description of the data set: Approximate solubility at RT. The data set is classed as physicochemical. As for the experimental part:
Four freeform isolation experiments were performed in different solvent with different acids. Solids were obtained in DCM/HCl and CHCl3/HCl system.
Approximately 2 mg solids were added into a 3-mL glass vial. Solvents in the following table were then added stepwise (50-50-200-700[…] for each step) into the vials and stirred until the solids were dissolved or a total volume of 1 mL was reached. The solubility results were used to guide the solvent selection in polymorph formation.

As usually defined, the solubility is the concentration that dissolves in the medium under given conditions.

In brackets after ≈: the same amount, converted by molar mass. Like-named read-outs stand apart in the source and are kept apart here.

Regarding `CC(=O)NCC1CCN(Cc2cc(Oc3ccc(N4CCN(CCC(=O)O)CC4)nc3)nc(-c3cc(Cl)cc(Cl)c3)c2)CC1` [Freeform Type A], the solubility (1,4-dioxane, organic solvent or mixture, thermodynamic from solid, 1,4-Dioxane, RT, read-out: Solubility) was < 1.9 mg/mL; the solubility (2-MeTHF, organic solvent or mixture, thermodynamic from solid, 2-MeTHF, RT, read-out: Solubility) is < 1.7 mg/mL; the solubility (ACN, organic solvent or mixture, thermodynamic from solid, ACN, RT, read-out: Solubility) is < 1.9 mg/mL; the solubility (Anisole, organic solvent or mixture, thermodynamic from solid, Anisole, RT, read-out: Solubility) was < 2 mg/mL; the solubility entry (CHCl3, RT, solvent for freeform isolation) is “S < 1.2 mg/mL”; the solubility (CHCl3, organic solvent or mixture, thermodynamic from solid, CHCl3, RT, read-out: Solubility) is < 2.1 mg/mL. Moreover, the solubility is, setting by setting: (CPME, organic solvent or mixture, thermodynamic from solid, CPME, RT, read-out: Solubility) < 2 mg/mL; (DCM, organic solvent or mixture, thermodynamic from solid, DCM, RT, read-out: Solubility) < 1.8 mg/mL; (DMSO, organic solvent or mixture, thermodynamic from solid, DMSO, RT, read-out: Solubility) 17 to 34 mg/mL (≈ 26.5 to 53 mM); (EtOAc, organic solvent or mixture, thermodynamic from solid, EtOAc, RT, read-out: Solubility) < 2 mg/mL; (EtOH, organic solvent or mixture, thermodynamic from solid, EtOH, RT, read-out: Solubility) 7.3 to 22 mg/mL (≈ 11.4 to 34.3 mM); (IPA, organic solvent or mixture, thermodynamic from solid, IPA, RT, read-out: Solubility) 1.5 to 1.8 mg/mL (≈ 2.34 to 2.81 mM). In addition, the solubility reads like this: (IPAc, organic solvent or mixture, thermodynamic from solid, IPAc, RT, read-out: Solubility) < 1.9 mg/mL; (MIBK, organic solvent or mixture, thermodynamic from solid, MIBK, RT, read-out: Solubility) < 2.1 mg/mL; (MTBE, organic solvent or mixture, thermodynamic from solid, MTBE, RT, read-out: Solubility) < 1.9 mg/mL; (MeOH, organic solvent or mixture, thermodynamic from solid, MeOH, RT, read-out: Solubility) > 40 mg/mL; (THF, organic solvent or mixture, thermodynamic from solid, THF, RT, read-out: Solubility) 4 to 8 mg/mL (≈ 6.23 to 12.5 mM); (Toluene, organic solvent or mixture, thermodynamic from solid, Toluene, RT, read-out: Solubility) < 2.1 mg/mL. In addition, the solubility by setting is: (acetone, organic solvent or mixture, thermodynamic from solid, Acetone, RT, read-out: Solubility) < 1.9 mg/mL; (n-Heptane, organic solvent or mixture, thermodynamic from solid, n-Heptane, RT, read-out: Solubility) < 2.2 mg/mL; (water, thermodynamic from solid, H2O, RT, read-out: Solubility) < 2 mg/mL.
